Results reported in patent US20040121316A1 (priority 2002, published 2004).
Read-outs that look alike come from different tables or passages of the source.

Columns and labels:
in vitro = settings: human
mutant HIV-1 I84V/L90M = test: Resistance Evaluation, I84V/L90M fold change; assay type: cell-based; settings: mutant I84V/L90M vs wild type
HIV-1 30N82I88D = test: microbe, parasite or virus in culture; assay type: cell-based
HIV-1 46I50V = test: microbe, parasite or virus in culture; assay type: cell-based
HIV-1 48V54V82A = test: microbe, parasite or virus in culture; assay type: cell-based
HIV-1 48V82A90M = test: microbe, parasite or virus in culture; assay type: cell-based
HIV-1 84V90M = test: microbe, parasite or virus in culture; assay type: cell-based; settings: Human immunodeficiency virus 1, read-out: Cell-based assay (MT-4) EC50/nM 84V90M
HIV-1 48V54V82S = test: microbe, parasite or virus in culture; assay type: cell-based
84V90M HIV protease = 84V90M HIV protease (Human immunodeficiency virus type 1 group M subtype B, UniProt P04585, I572V/L578M); test: biochemical; parameters: species or system HIV-1
[1] = test system: recombinant HIV-1 10I 48V 71V 82A 90M; test: microbe, parasite or virus in culture; assay type: cell-based
[2] = test system: recombinant HIV-1 46I 47V 50V; test: microbe, parasite or virus in culture; assay type: cell-based
WT HIV-1 [3] = test: microbe, parasite or virus in culture; assay type: cell-based
[4] = test system: recombinant HIV-1 30N 50S 82I 88D; test: microbe, parasite or virus in culture; assay type: cell-based
[5] = test system: recombinant HIV-1 10I 48V 54V 82A; test: microbe, parasite or virus in culture; assay type: cell-based
[6] = test system: recombinant HIV-1 48V 54V 71V 82S; test: microbe, parasite or virus in culture; assay type: cell-based
[7] = test system: wild-type HIV-1 strain IIIB; test: microbe, parasite or virus in culture; assay type: cell-based; settings: Human immunodeficiency virus 1, IIIB
WT HIV-1 [8] = test: microbe, parasite or virus in culture; assay type: cell-based; settings: read-out: Cell-based assay (MT-4) EC50/nM WT
[9] = test system: recombinant HIV-1 10I 84V 71V 73S 90M; test: microbe, parasite or virus in culture; assay type: cell-based; settings: Human immunodeficiency virus 1, MT4, read-out: Cell-based assay (MT-4) EC50/nM 84V 90M
[10] = test system: recombinant HIV-1 strains with resistance mutations in the protease gene; test: Cross-Resistance Profile Assay, whole panel; assay type: cell-based; settings: {}
[11] = Human immunodeficiency virus 1, read-out: Cell-based assay (MT-4) EC50/nM 30N82I88D
[12] = Human immunodeficiency virus 1, read-out: Cell-based assay (MT-4) EC50/nM 46I50V
[13] = Human immunodeficiency virus 1, read-out: Cell-based assay (MT-4) EC50/nM 48V54V82A
[14] = Human immunodeficiency virus 1, read-out: Cell-based assay (MT-4) EC50/nM 48V82A90M
[15] = Human immunodeficiency virus 1, read-out: Cell-based assay (MT-4) EC50/nM 48V54V82S
[16] = Human immunodeficiency virus 1, MT4, read-out: Cell-based assay (MT-4) EC50/nM 48V 82A 90M
[17] = Human immunodeficiency virus 1, MT4, read-out: Cell-based assay (MT-4) EC50/nM 47I 50V
[18] = Human immunodeficiency virus 1, MT4, read-out: Cell-based assay (MT-4) EC50/nM WT
[19] = Human immunodeficiency virus 1, MT4, read-out: Cell-based assay (MT-4) EC50/nM 30N 82I 88D
[20] = Human immunodeficiency virus 1, MT4, read-out: Cell-based assay (MT-4) EC50/nM 48V 54V 82A
[21] = Human immunodeficiency virus 1, MT4, read-out: Cell-based assay (MT-4) EC50/nM 48V 54V 82S

CC(C)CN(CC(O)C(Cc1ccc(OCP(=O)(OCc2ccccc2)OCc2ccccc2)cc1)NC(=O)OC1COC2OCCC12)S(=O)(=O)c1ccc(OC(F)(F)F)cc1 (centres unmarked)
CC50 (in vitro): 5000 to 50000 nM
I84V/L90M fold change (mutant HIV-1 I84V/L90M): + (>3 to ≦10)

CCOP(=O)(COc1ccc(CC2C(O)C(O)C(Cc3ccccc3)N(Cc3ccccc3)C(=O)N2Cc2ccccc2)cc1)OCC (centres unmarked) [listing 1 of 2 here]
EC50 (HIV-1 30N82I88D; [11]): 293 nM
EC50 (HIV-1 46I50V; [12]): 589 nM
EC50 (HIV-1 48V54V82A; [13]): 1440 nM
EC50 (HIV-1 48V82A90M; [14]): 3290 nM
EC50 (HIV-1 84V90M): 2460 nM
EC50 (HIV-1 48V54V82S; [15]): 1900 nM
IC50 (84V90M HIV protease): 48 nM

CCOP(=O)(COc1ccc(CC2C(O)C(O)C(Cc3ccccc3)N(Cc3ccccc3)C(=O)N2Cc2ccccc2)cc1)OCC (centres unmarked) [listing 2 of 2 here]
EC50 ([1]; read-out: Cell-based assay (MT-4) EC50/nM 48V 82A 90M, MT-4 cells, strain printed as 48V 82A 90M): 3290 nM
EC50 ([2]; MT-4 cells, strain printed as 47I50V, read-out: Cell-based assay (MT-4) EC50/nM 47I 50V): 589 nM
EC50 (WT HIV-1 [3]; MT-4 cells, WT, read-out: Cell-based assay (MT-4) EC50/nM WT): 107 nM
EC50 ([4]; MT-4 cells, strain printed as 30N 82I 88D, read-out: Cell-based assay (MT-4) EC50/nM 30N 82I 88D): 293 nM
EC50 ([5]; MT-4 cells, strain printed as 48V 54V 82A, read-out: Cell-based assay (MT-4) EC50/nM 48V 54V 82A): 1440 nM
EC50 ([6]; MT-4 cells, strain printed as 48V 54V 82S, read-out: Cell-based assay (MT-4) EC50/nM 48V 54V 82S): 1900 nM

CCOP(=O)(COc1ccc(C[C@H](NC(=O)O[C@H]2CO[C@H]3OCC[C@H]32)[C@H](O)CN(CC(C)C)S(=O)(=O)c2ccc(OC)cc2)cc1)OCC [Compound 13]
CC50 (in vitro): 50000 nM
EC50 ([7]; MT2, 120 h, read-out: Anti-HIV-1 Cell Culture Activity EC50): 3 nM

CCCCN1C(=O)N(Cc2ccc3[nH]nc(N)c3c2)C(Cc2ccccc2)C(O)C(O)C1Cc1ccccc1 (centres unmarked) [DMP-851]
EC50 (WT HIV-1 [8]): 54 nM
EC50 (HIV-1 30N82I88D; MT-4, 30N82I88D, read-out: Cell-based assay (MT-4) EC50/nM 30N82I88D): 69 nM
EC50 (HIV-1 46I50V; MT-4, 46I50V, read-out: Cell-based assay (MT-4) EC50/nM 46I50V): 17 nM
EC50 (HIV-1 48V54V82A; MT-4, 48V54V82A, read-out: Cell-based assay (MT-4) EC50/nM 48V54V82A): 33 nM
EC50 (HIV-1 48V82A90M; MT-4, 48V82A90M, read-out: Cell-based assay (MT-4) EC50/nM 48V82A90M): 22 nM
EC50 (HIV-1 48V54V82S; MT-4, 48V54V82S, read-out: Cell-based assay (MT-4) EC50/nM 48V54V82S): 30 nM

CCOP(=O)(COc1ccc(CC2C(O)C(O)C(Cc3ccccc3)N(Cc3cccc(N)c3)C(=O)N2Cc2cccc(N)c2)cc1)OCC (centres unmarked) [H, Ph-mNH2, OCH2PO3Et2]
EC50 (HIV-1 30N82I88D; [11]): 16 nM
EC50 (HIV-1 46I50V; [12]): 46 nM
EC50 (HIV-1 48V54V82A; [13]): 168 nM
EC50 (HIV-1 48V82A90M; [14]): 74 nM
EC50 (HIV-1 84V90M): 328 nM
EC50 (HIV-1 48V54V82S; [15]): 146 nM

CCOP(=O)(COc1ccc(CC2C(O)C(O)C(Cc3ccccc3)N(Cc3ccc(O)cc3)C(=O)N2Cc2ccc(O)cc2)cc1)OCC (centres unmarked) [H, Ph-pOH, OCH2PO3Et2]
EC50 (HIV-1 30N82I88D; [11]): 90 nM
EC50 (HIV-1 46I50V; [12]): 144 nM
EC50 (HIV-1 48V54V82A; [13]): 128 nM
EC50 (HIV-1 48V82A90M; [14]): 126 nM
EC50 (HIV-1 48V54V82S; [15]): 198 nM

CCOP(=O)(COc1ccc(CC2C(O)C(O)C(Cc3ccccc3)N(Cc3cccc(N)c3)C(=O)N2Cc2cccc(N)c2)cc1)OCC (centres unmarked) [H/Ph-mNH2/OCH2PO3Et2]
EC50 [1, 16]: 74 nM
EC50 [9]: 328 nM
EC50 [2, 17]: 46 nM
EC50 (WT HIV-1 [3]; [18]): 65 nM
EC50 [4, 19]: 16 nM
EC50 [5, 20]: 168 nM
EC50 [6, 21]: 146 nM

CCOP(=O)(COc1ccc(CC2C(O)C(O)C(Cc3ccccc3)N(Cc3ccc(O)cc3)C(=O)N2Cc2ccc(O)cc2)cc1)OCC (centres unmarked) [H/Ph-pOH/OCH2PO3Et2]
EC50 [1, 16]: 146 nM
EC50 [2, 17]: 144 nM
EC50 (WT HIV-1 [3]; [18]): 65 nM
EC50 [4, 19]: 90 nM
EC50 [5, 20]: 128 nM
EC50 [6, 21]: 222 nM

O=C1N(Cc2ccccc2)C(Cc2ccccc2)C(O)C(O)C(Cc2ccc(O)cc2)N1Cc1ccccc1 (centres unmarked) [H/Ph/OH]
EC50 [9]: > 6000 nM
EC50 (WT HIV-1 [3]; [18]): 1260 nM
EC50 [4, 19]: 2950 nM
EC50 [5, 20]: > 6000 nM

CC(C)(C)NC(=O)[C@@H]1CN(Cc2cccnc2)CCN1C[C@@H](O)C[C@@H](Cc1ccccc1)C(=O)N[C@H]1c2ccccc2C[C@H]1O [Indinavir, reference compound]
Total No. of Resistant Viruses [10]: 8
EC50 [7]: < 50 nM
